Laboratory results published in patent publication US20130236568A1, “PHOSPHAPLATINS HAVING ANTI-ANGIOGENIC, ANTI-METASTATIC, AND PRO-APOPTOTIC PROPERTIES AND USES THEREOF” (Ohio University, priority 2011, published 2013).

How the values were obtained:
Assay type in all cases: cell-based, human
VEGFR2 gene [1] = assay: Quantitative real-time PCR, VEGFR2 gene expression in A2780 cells
Procedure: (§1) Evaluations of selected gene expressions in Human Umbilical Vein Endothelial Cells (HUVEC) and Human Ovarian Cancer Cells by quantitative reverse transcriptase polymerase chain reaction (PCR)
(§2) Quantitative real-time PCR experiments were performed to estimate the expression of a selection of targeted genes. HUVEC cells (Lonza Walkersville, Frederick, Md.) were cultured on 0.1% gelatin-coated petri dishes by following standard protocols recommended by the vendor in a humidified incubator by maintaining 5% CO2 at 37° C. Human epithelial ovarian cancer cells (A2780) and cisplatin-resistant cells (A2780/C30) were cultured in RPMI 1640 with or without cisplatin (7 μM) and pyrodach-4 (180 μM) for 0, 3, 12 and 24 hours. […] HUVECs were treated with or without cisplatin (7 μM) or pyrodach-4 (90 or 180 μM) for various durations ranging from 1 hr. to 6 hrs.
(§3) Both treated and untreated cancer cells were maintained in RPMI 1640 medium with 10% fetal bovine serum, 2 μmol L-glutamine, 100 units/mL penicillin-streptomycin and 0.25 units/mL insulin solution, at 37° C. with 5% CO2. RNA was isolated from both the treated and untreated cells. […] The quantity and purity of RNA were determined by UV spectroscopy (NanoDrop 2000 Thermo Scientific, Wilmington, Del.). A minimum absorbance ratio index (ratio of the absorbance measured at 260 nm over that at 280 nm) of 1.9 was used as an acceptable purity. […] The target gene was labeled with a blue dye (FAM, absorbance: 494 nm, emission: 518 nm) while the reference gene was tagged with a green dye (VIC, absorbance: 538 nm, emission: 554 nm). The cDNA concentrations were selected such that the threshold cycle (Ct) values for the target genes were between 17 and 32, most sensitive for the fluorescence detection by ABI StepOnePlus™ instrument used for the measurements.
(§4) The threshold cycle number (Ct), the point at which the fluorescence of the qPCR reaction just exceeds the threshold fluorescence of the detection system, was determined. […]

VEGFR2 gene [2] = assay: Quantitative real-time PCR, VEGFR2 gene expression in HUVEC cells
Procedure: as §1
(§5) Quantitative real-time PCR experiments were performed to estimate the expression of a selection of targeted genes. HUVEC cells (Lonza Walkersville, Frederick, Md.) were cultured on 0.1% gelatin-coated petri dishes by following standard protocols recommended by the vendor in a humidified incubator by maintaining 5% CO2 at 37° C. […]
as §3, with “CO2.” for “CO2. RNA was isolated from both the treated and untreated cells.”, “The cDNA concentrations were selected such that the threshold cycle (Ct) values for the target genes were between 17 and 32, most sensitive for the fluorescence detection by ABI StepOnePlus™ instrument used for the measurements.” left out
as §4

BAX = assay: Expression of key genes with and without p53 inhibitor (Table 3): BAX; settings: positive = manifold increase, negative = decrease vs untreated cells
Procedure: as §2
as §3, with “The cDNA concentrations were selected such that the threshold cycle (Ct) values for the target genes were between 17 and 32, most sensitive for the fluorescence detection by ABI StepOnePlus™ instrument used for the measurements.” left out

FasL [3] = assay: Expression of key genes with and without p53 inhibitor (Table 3): FasL; settings: positive = manifold increase, negative = decrease vs untreated cells
Procedure: as §2
as §3, with “The cDNA concentrations were selected such that the threshold cycle (Ct) values for the target genes were between 17 and 32, most sensitive for the fluorescence detection by ABI StepOnePlus™ instrument used for the measurements.” left out

p53 = assay: Expression of key genes with and without p53 inhibitor (Table 3): p53; settings: positive = manifold increase, negative = decrease vs untreated cells
Procedure: as §2
as §3, with “The cDNA concentrations were selected such that the threshold cycle (Ct) values for the target genes were between 17 and 32, most sensitive for the fluorescence detection by ABI StepOnePlus™ instrument used for the measurements.” left out

PUMA = assay: Expression of key genes with and without p53 inhibitor (Table 3): PUMA; settings: positive = manifold increase, negative = decrease vs untreated cells
Procedure: as §2
as §3, with “The cDNA concentrations were selected such that the threshold cycle (Ct) values for the target genes were between 17 and 32, most sensitive for the fluorescence detection by ABI StepOnePlus™ instrument used for the measurements.” left out

VEGFR-2 = assay: Expression of key genes with and without p53 inhibitor (Table 3): VEGFR-2; settings: positive = manifold increase, negative = decrease vs untreated cells
Procedure: as §2
as §3, with “The cDNA concentrations were selected such that the threshold cycle (Ct) values for the target genes were between 17 and 32, most sensitive for the fluorescence detection by ABI StepOnePlus™ instrument used for the measurements.” left out

Fas = assay: Quantitative real-time PCR, Fas expression in HUVEC; settings: HUVEC treated with pyrodach-4
Procedure: as §1, §5
as §3, with “CO2.” for “CO2. RNA was isolated from both the treated and untreated cells.”, “The cDNA concentrations were selected such that the threshold cycle (Ct) values for the target genes were between 17 and 32, most sensitive for the fluorescence detection by ABI StepOnePlus™ instrument used for the measurements.” left out
as §4

FasL [4] = assay: Quantitative real-time PCR, FasL expression in HUVEC; settings: HUVEC treated with pyrodach-4
Procedure: as §1, §5
as §3, with “CO2.” for “CO2. RNA was isolated from both the treated and untreated cells.”, “The cDNA concentrations were selected such that the threshold cycle (Ct) values for the target genes were between 17 and 32, most sensitive for the fluorescence detection by ABI StepOnePlus™ instrument used for the measurements.” left out
as §4

caspase-3 = assay: Quantitative real-time PCR, caspase-3 expression in HUVEC; settings: HUVEC treated with pyrodach-4
Procedure: as §1, §5
as §3, with “CO2.” for “CO2. RNA was isolated from both the treated and untreated cells.”, “The cDNA concentrations were selected such that the threshold cycle (Ct) values for the target genes were between 17 and 32, most sensitive for the fluorescence detection by ABI StepOnePlus™ instrument used for the measurements.” left out
as §4

For “trans-(±)-1,2-cyclohexanediamine-trans-dihydroxo(pyrophosphato) platinum(IV) [Pyrodach-4]”, the “Normalized expression of VEGFR2 gene” value (VEGFR2 gene [1]; A2780 (cisplatin-sensitive), positive = manifold increase, negative = relative decrease vs untreated cells, cisplatin 7 μM, pyrodach-4 180 μM) was −2.0, the “Suppression of VEGFR-2 gene expression” value (VEGFR2 gene [1]; cisplatin-sensitive human ovarian cancer cells) was ≤ 50% and the “Suppression of VEGFR-2 expression” value (VEGFR2 gene [2]) was ≤ 50%. The “Normalized expression of VEGFR2 gene” value (VEGFR2 gene [2]; positive = manifold increase, negative = relative decrease vs untreated cells, pyrodach-4 90 or 180 μM, 1 to 6 hrs) was −2.0, the “Expression of BAX” value (BAX; Pyrodach-4 + PFT-α (p53 inhibitor)) was 1.0 and the “Expression of BAX” value (BAX; Pyrodach-4 treatment only, cell line not given) was 2.8. For the same substance, the “Expression of FasL” value (FasL [3]; Pyrodach-4 + PFT-α) was “undetectable”, the “Expression of FasL” value (FasL [3]; Pyrodach-4 treatment only) was 4.6 and the “Expression of p53” value (p53; Pyrodach-4 + PFT-α) was 2.1. The “Expression of p53” value (p53; Pyrodach-4 treatment only) was 1.8, the “Expression of PUMA” value (PUMA; Pyrodach-4 + PFT-α) was 4.4 and the “Expression of PUMA” value (PUMA; Pyrodach-4 treatment only) was 16.6. The “Expression of VEGFR-2” value (VEGFR-2; Pyrodach-4 + PFT-α) was −1.6, the “Expression of VEGFR-2” value (VEGFR-2; Pyrodach-4 treatment only) was −1.9 and the “Over-expression of Fas” value (Fas) was 2-5 fold. For the same substance, the “Over-expression of FasL” value (FasL [4]) was 2-4 fold and the “Over-expression of caspase-3” value (caspase-3) was 2-3 fold.
